The results in this text go back to patent US20260007674A1, “Novel Chemotypes for Treating Parasitic Diseases and Methods of Use” (The Medical College of Wisconsin, Inc., priority 2022, published 2026).

Data set [1] deals with S. mansoni. In words: Adult schistosome movement assay ex vivo (contraction and paralysis). Format: cell-based, Schistosoma mansoni. The procedure: It was observed that N-amidoquinazolinones contract S. mansoni in a manner similar to the channel activator (and standard of treatment) praziquantel. Adult schistosomes were harvested from the mesenteric vasculature of female Swiss Webster mice previously infected (˜49 days earlier). Harvested schistosomes were washed in RPMI 1640 supplemented with 5% heat inactivated FBS, HEPES, and penicillin-streptomycin. After isolation, worms were incubated overnight in vented petri dishes. Movement assays were performed using male and female worms in six well dishes (˜5 individual worms/3 ml media per well). Schistosomes were treated with a molecule such as compound 4, and video recordings of worm motility were captured using a stereomicroscope coupled to a CCD camera. […] It was also observed that 2-amidoacrylates or 2-amidoacrylamides contract S. mansoni in a manner similar to the channel activator (and standard of treatment) praziquantel. The worm mobility assay performed in FIG. 13 is same as that performed in FIG. 3. Briefly, adult schistosomes were harvested from the mesenteric vasculature of female Swiss Webster mice previously infected (˜49 days earlier). Harvested schistosomes were washed in RPMI 1640 supplemented with 5% heat inactivated FBS, HEPES, and penicillin-streptomycin. After isolation, worms were incubated overnight in vented petri dishes. […]

The test system of data set [2] is F. hepatica. As to the kind of experiment: Electron microscopy of tegument of treated F. hepatica. It counts as cell-based, Fasciola hepatica. The settings on record: FIGS. 17K and 17L. From the text:
FIGS. 17A-L show representative BZQ/S55 ex vivo activities on Fasciola hepatica adults and immature worms.

Data set [3] in a line: Toxicity observation in treated mice of the schistosomiasis model. As to conditions: 50 mg/kg intraperitoneal 1× daily for 3 days. Format: in vivo. The procedure:
(§1) All animal experiments followed ethical regulations approved by the MCW IACUC committee. At 7 weeks post-infection, mice were randomly sorted into 4 groups of 13 mice. One group was left untreated as a control. A second group was treated with vehicle (a mixture of DMSO/PEG400/H2O). A third group was treated with praziquantel (50 mg/kg, intraperitoneal, 1× daily) for 3 days in a row. In addition, a fourth group was treated with BZQ/S55 in the same fashion as praziquantel. Four days after the first treatment, the mice were euthanized, and the mesenteric vasculature was dissected in the usual fashion to recover schistosomes. The worm burden from each mouse was individually plotted (FIG. 16). There was no significant difference between untreated mice and mice treated with vehicle, confirming that the vehicle the drugs were dosed in had no effect on worm burden.

The subject of data set [4] is S. mansoni. As to the kind of experiment: Electron microscopy of tegument of treated S. mansoni. Format: cell-based, Schistosoma mansoni. The settings on record: FIG. 17H, 17I.
For data set [5], the system named is Fasciola hepatica. As to the kind of experiment: Ex vivo treatment of immature and adult F. hepatica (contraction, motility, viability). Format: cell-based. As to the method:
Briefly, Male Wistar rats served as the final host to obtain immature and adult stages of F. hepatica after infection with metacercariae from an Italian strain of F. hepatica. Immature flukes were collected from livers 4 weeks post-infection. Adult flukes were collected from bile ducts at 12 weeks post-infection. Worms were kept for 1 h in normal saline to allow clearance of gut contents and then used for experiments. In vitro experiments were performed utilizing a similar procedure as previously reported. Excised worms were treated with different concentrations of praziquantel, triclabendazole, BZQ/S55, S5, and S69, or DMSO as a negative control. The flukes were incubated at 37° C. in a 5% CO2 atmosphere for 72 h, and inhibitor-induced effects on worm viability were assessed using a stereomicroscope at 10× magnification. Worm motility was assessed using the following scores: 3 (normal motility), 2 (reduced motility), 1 (minimal and sporadic movements), and 0 (no movement even upon mechanical stimulation with forceps; considered dead). Representative results from these studies are shown FIGS. 17A-L.

Data set [6] deals with S. mansoni. In words: Murine model of schistosomiasis, worm burden. Format: in vivo, mice. The settings on record: 50 mg/kg intraperitoneal 1× daily for 3 days, FIG. 16; for worm burden: Female Swiss Webster mice, 7 weeks post-infection, recovery four days after first treatment. As to the method:
as §1

“Also recorded” adds a separate entry of the source.

As to `O=C(Nn1c(-c2cccc(Cl)c2)nc2ccccc2c1=O)c1ccccc1` [BZQ/S55, N-(2-(3-chlorophenyl)-4-oxoquinazolin-3(4H)-yl)benzamide], in data set [1] (treated with BZQ/S55, FIG. 17C), the “effect on Schistosomes” value is “mimics praziquantel on schistosomes; also recorded: Rapid, sustained contraction and paralysis”. The “tegument of F. hepatica in electron microscopy image” value in data set [2] is reported as “notable tegument damage”. In addition, the toxicity entry in data set [3] is listed as “no toxicity was noticed”. Further, in data set [4], the “tegument of S. mansoni in electron microscopy image” value is “tegument was destroyed”. For the same compound, in data set [5] (immature (4 weeks post-infection) and adult (12 weeks) flukes from rats), the “ex vivo activity on Fasciola hepatica adults and immature worms” value is “active ex vivo”. Moreover, the “effect on Fasciola hepatica” value in data set [5] (treated with BZQ/S55, FIG. 17C) was “Rapid, sustained contraction and paralysis”. Also, in data set [6], the “efficacy compared with praziquantel, the standard of treatment” value is on record as “as effective as praziquantel” and the worm burden result is listed as “significant reduction in worm burden”.

`O=C(C1CCCCC1)N1CC(=O)N2CCc3ccccc3C2C1` (stereo not drawn) [Praziquantel, praziquantel, reference compound]: the “effect on Schistosomes” value in data set [1] (Praziquantel 500 nM, FIG. 17A) was “rapid, spastic paralysis”. In data set [4], the “tegument of S. mansoni in electron microscopy image” value is given as “tegument was destroyed”. Also, the “effect on Fasciola hepatica” value in data set [5] (praziquantel 50 μM, FIG. 17B) is given as “Neither treatment has an effect”. For the same compound, the worm burden entry in data set [6] is given as “significant reduction in worm burden”.
